Source: paper PMC6010107, “Identification of new allosteric sites and modulators of AChE through computational and experimental tools” (Journal of Enzyme Inhibition and Medicinal Chemistry, 2018)
Read-outs that look alike come from different tables or passages of the source.

Legend:
AChE [1] = biological target: T1, AChE (Homo sapiens, UniProt P22303); conditions: cited from earlier work
T1 construct: purchased Sigma Chemical Co., Madrid, Spain

AChE [2] = biological target: T1, AChE; test: AChE inhibition in presence of the competitive inhibitor JTE-907 (cooperative activities); format: biochemical; design: key to ΔISC035 (combination minus SC035 alone): difference in % AChE inhibition (combination minus SC035 alone); conditions: for Effect of combining with JTE-907 on AChE inhibition: sum of activities with JTE-907
Procedure: (§1) The method was adapted from Ellman et al.[47] The assay solution consisted of 0.1 M phosphate buffer pH 8, […] 5,5′-dithiobis(2-nitrobenzoic acid) (DTNB, Ellman’s reagent), 0.05 unit/ml AChE (Sigma Chemical Co., Madrid, Spain, Cholinesterase, acetyl human recombinant), and […] acetylthiocholine iodide as the substrate of the enzymatic reaction. The compounds tested were added to the assay solution and the absorbance changes at 412 nm were recorded for 5 min with a UV/Vis Microplate and cuvette Spectrophotometer, Thermo Electron Type, Multiskan Spectrum. The reaction rates were compared, and the per cent inhibition due to the presence of test compounds was calculated. […] All the experiments were performed in triplicate.
Clearly, both compounds bind to AChE at an allosteric site. […] If our hypothesis is right, the binding of VP2.33 and SC035 to the allosteric site 3 in presence of JTE-907 should show a cooperative behaviour in terms of inhibition of the AChE.

AChE [3] = biological target: T1, AChE; test: Kinetic study of AChE inhibition (Lineweaver-Burk); format: biochemical; conditions: Lineweaver-Burk plots, four substrate and three inhibitor concentrations
Procedure: To investigate the mechanism of action of the compounds on AChE, a kinetic analysis was performed. The experiments were carried out using combinations of four substrate concentrations, and three inhibitor concentrations. Double-reciprocal Lineweaver–Burk plotting of the data obtained, in which each point is mean of three different experiments, were analysed.
Mixed inhibitors cause intersects above or below the x-axis.

[4] = biological target: T2, AChE (Cholinesterase, acetyl human recombinant) (Homo sapiens, UniProt P22303); test: biochemical; format: biochemical
T2 construct: purchased Sigma Chemical Co., Madrid, Spain
Procedure: as §1

[5] = Table S1 first grid, JTE907 2.5 μM + SC035 25 μM
[6] = Table S1 first grid, JTE907 5 μM + SC035 50 μM
[7] = Table S1 first grid, JTE907 20 μM + SC035 25 μM
[8] = Table S1 first grid, JTE907 20 μM + SC035 50 μM
[9] = Table S1 second grid, SC035 25 μM + JTE907 5 μM
[10] = Table S1 second grid, SC035 50 μM + JTE907 2.5 μM
[11] = Table S1 second grid, SC035 50 μM + JTE907 5 μM
[12] = Table S1 second grid, SC035 70 μM + JTE907 2.5 μM
[13] = Table S1 second grid, SC035 70 μM + JTE907 5 μM
[14] = Table 4, compounds selected to bind site 3, read-out: IC50
[15] = compound alone, read-out: Individual inhibition of AChE

T1 sequence (P22303 32-614): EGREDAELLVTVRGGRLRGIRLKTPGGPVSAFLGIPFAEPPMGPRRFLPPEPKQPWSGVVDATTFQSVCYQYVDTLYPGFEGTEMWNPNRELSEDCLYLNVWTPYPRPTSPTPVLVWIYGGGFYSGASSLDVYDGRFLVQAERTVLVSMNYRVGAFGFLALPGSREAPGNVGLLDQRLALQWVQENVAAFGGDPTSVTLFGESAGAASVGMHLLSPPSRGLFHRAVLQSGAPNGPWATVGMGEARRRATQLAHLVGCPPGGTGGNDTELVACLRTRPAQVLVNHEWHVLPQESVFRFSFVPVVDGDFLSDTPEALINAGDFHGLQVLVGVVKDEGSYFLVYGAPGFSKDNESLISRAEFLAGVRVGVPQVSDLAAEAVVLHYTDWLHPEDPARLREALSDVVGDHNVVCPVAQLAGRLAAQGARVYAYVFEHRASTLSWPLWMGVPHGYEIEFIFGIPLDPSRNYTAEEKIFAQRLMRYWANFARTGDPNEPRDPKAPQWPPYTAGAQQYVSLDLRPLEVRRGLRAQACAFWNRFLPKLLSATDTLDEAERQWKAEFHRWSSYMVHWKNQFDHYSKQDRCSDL
T2 sequence (P22303 32-614): as above

## CCCCCOc1c(OC)ccc2cc(C(=O)NCc3ccc4c(c3)OCO4)c(=O)[nH]c12 [JTE907, reference compound]
AChE [1]
  Mechanism of AChE inhibition: pure competitive inhibitor
AChE [2]; JTE907 5 μM + VP2.33 25 μM
  ΔIJTE907 (combination minus JTE907 alone): ΔIJTE907 = 19.86
AChE [2]; JTE907 5 μM + VP2.33 50 μM
  ΔIJTE907 (combination minus JTE907 alone): ΔIJTE907 = 44.53
AChE [2]; JTE907 10 μM + VP2.33 25 μM
  ΔIJTE907 (combination minus JTE907 alone): ΔIJTE907 = 11.79
AChE [2]; JTE907 20 μM + VP2.33 25 μM
  ΔIJTE907 (combination minus JTE907 alone): ΔIJTE907 = 15.66
AChE [2]; JTE907 20 μM + VP2.33 50 μM
  ΔIJTE907 (combination minus JTE907 alone): ΔIJTE907 = 24.96
AChE [2]; [5]
  ΔIJTE907 (combination minus JTE907 alone): 21,5
AChE [2]; Table S1 first grid, JTE907 2.5 μM + SC035 50 μM
  ΔIJTE907 (combination minus JTE907 alone): 33
AChE [2]; [6]
  ΔIJTE907 (combination minus JTE907 alone): 19,52
AChE [2]; [7]
  ΔIJTE907 (combination minus JTE907 alone): -3,46
AChE [2]; [8]
  ΔIJTE907 (combination minus JTE907 alone): -3,34
AChE [2]; Table S1 second grid, SC035 25 μM + JTE907 2.5 μM
  ΔIJTE907 (combination minus JTE907 alone): 18,41
AChE [2]; [9]
  ΔIJTE907 (combination minus JTE907 alone): 13,78
AChE [2]; [10]
  ΔIJTE907 (combination minus JTE907 alone): 33,91
AChE [2]; [11]
  ΔIJTE907 (combination minus JTE907 alone): 17,2
AChE [2]; [12]
  ΔIJTE907 (combination minus JTE907 alone): 48,02
AChE [2]; [13]
  ΔIJTE907 (combination minus JTE907 alone): 20,33
AChE [2]; compound alone, 2.5 μM
  Individual inhibition of AChE: 14,09±2,85%
AChE [2]; compound alone, 5 μM
  Individual inhibition of AChE: 34,22±1,13% and JTE907 5μM (30.34 ± 2.85%)
AChE [2]; compound alone, 10 μM
  Individual inhibition of AChE: JTE907 10 μM (56.78 ± 1.35%)
AChE [2]; compound alone, 20 μM
  Individual inhibition of AChE: 65,78±2,37% and JTE907 20 μM (65.10 ± 2.37%)

## NC1=NC(=O)C2N=C(c3ccccc3)C(c3ccccc3)=NC2=N1 (stereo not drawn) [SC251]
AChE [3]
  Mechanism of inhibition versus substrate ACh: non-competitive-mixed
[4]; Table 3, compounds selected to bind site 2, read-out: IC50
  IC50: 2.76 ± 0.25 µM

## O=C(CN1CCCC1)NN1c2ccccc2Sc2ccc(Cl)cc21 [SC035]
AChE [3]
  Mechanism of inhibition versus substrate ACh: non-competitive inhibition
[4]; [14]
  IC50: 42.1 ± 4.3 µM
AChE [2]; [5]
  ΔISC035 (combination minus SC035 alone): -6,74
AChE [2]; Table S1 first grid, JTE907 5 μM + SC035 25 μM
  ΔISC035 (combination minus SC035 alone): 2,26
AChE [2]; [6]
  ΔISC035 (combination minus SC035 alone): -4,98
AChE [2]; [7]
  ΔISC035 (combination minus SC035 alone): 19,99
AChE [2]; [8]
  ΔISC035 (combination minus SC035 alone): 3,72
AChE [2]; [9]
  ΔISC035 (combination minus SC035 alone): 5,67
AChE [2]; [10]
  ΔISC035 (combination minus SC035 alone): -10,72
AChE [2]; [11]
  ΔISC035 (combination minus SC035 alone): -7,3
AChE [2]; [12]
  ΔISC035 (combination minus SC035 alone): -13,21
AChE [2]; [13]
  ΔISC035 (combination minus SC035 alone): -20,77
AChE [2]; [15]
  inhibition at 25 µM: 42.3%
  inhibition at 50 µM: 58.7%
AChE [2]; compound alone, 70 μM, read-out: Individual inhibition of AChE
  inhibition at 70 µM: 75.3%
AChE [2]
  Effect of combining with JTE-907 on AChE inhibition: no addition of activities

## O=C(/C=C/c1ccc(O)c(O)c1)O[C@H](Cc1ccc(O)c(O)c1)C(=O)O [Rosmarinic acid, reference compound]
[4]; IC50 (μM), Table 3, compounds selected to bind site 2
  IC50: > 10 µM
[4]; read-out: % of inhibition at 10 μM
  inhibition at 10 µM: 26%

## OCCNc1nc(-c2cccc3ccccc23)[n+](-c2ccccc2)s1 [VP2.33]
AChE [3]
  Mechanism of inhibition versus substrate ACh: non-competitive inhibition
[4]; [14]
  IC50: 49.6 ± 1.5 µM
AChE [2]; JTE907 5 μM + VP2.33 50 μM
  ΔIVP2.33 (combination minus VP2.33 alone): ΔIVP2.33 = 17.16
AChE [2]; JTE907 10 μM + VP2.33 25 μM
  ΔIVP2.33 (combination minus VP2.33 alone): ΔIVP2.33 = 41.29
AChE [2]; JTE907 10 μM + VP2.33 50 μM
  ΔIVP2.33 (combination minus VP2.33 alone): ΔIVP2.33 = 27.71
AChE [2]; JTE907 20 μM + VP2.33 25 μM
  ΔIVP2.33 (combination minus VP2.33 alone): ΔIVP2.33 = 53.48
AChE [2]; JTE907 20 μM + VP2.33 50 μM
  ΔIVP2.33 (combination minus VP2.33 alone): ΔIVP2.33 = 32.35
AChE [2]; [15]
  inhibition at 25 µM: 27.3%
  inhibition at 50 µM: 57.7%
AChE [2]
  Effect of combining with JTE-907 on AChE inhibition: an effect of cooperative activities
